Patent publication US11186617B2, “Epitope” (HOYU CO., LTD., priority 2017, dated 2021)

What was measured:
[1] = system: IgE antibody in the serum from a WDEIA patient; assay: Epitope mapping (1): peptide array, chemiluminescent measurement of IgE binding using human serum; details: 15-amino-acid peptides on array; 2% serum; sera from WDEIA patients 1 to 3 vs healthy individuals 1 and 2; FIG. 1
Procedure: Epitope mapping was performed by using a library of overlapping peptides (15 amino acids in length) corresponding to the full-length amino acid sequence of ω-5 gliadin from bread wheat (SEQ ID NO: 51).
Each synthesized peptide was shifted by 10 amino acids. In other words, each peptide overlaps with the previous peptide and the next peptide, each by 5 amino acids.
Intavis CelluSpots™ technique was used for preparing a peptide array. Specifically, the peptide array was prepared by the following procedures: (1) synthesizing a target peptide on an amino-modified cellulose disk by using an automated synthesizer (MultiPep RS from Intavis), (2) dissolving said amino-modified cellulose disk to obtain a solution of a peptide bound to cellulose, and (3) spotting said peptide bound to cellulose on a coated slide glass. The detail of each procedure is as follows.
Said peptide array was used to measure whether each peptide fragment is bound by an IgE antibody in the serum from a WDEIA patient due to an antigen-antibody reaction, or not. This measurement was performed in accordance with the following procedures. […]
(7) Chemiluminescence of the peptide that was treated as described in the above (1) to (6) was measured by using Amersham Imager 600.

[2] = system: IgE antibody from the patient; assay: Epitope mapping (3): alanine scanning ELISA, patient serum; format: binding, human; details: alanine-substituted peptides; serum from patient 1; FIG. 3
Procedure: (§1) The amino acid sequence of SEQ ID NO: 22 and the amino acid sequence of SEQ ID NO: 29 identified in the above-mentioned (B) were subjected to a technique referred to as alanine scanning (Non Patent Literature 1). Specifically, a library of peptide fragments was prepared by a technique similar to that described above in (B), in which the peptide fragments were produced by substituting one amino acid at a time with alanine in each amino acid sequence of […], starting from the amino acid at an amino terminal side. Then, a technique similar to that described above in (B) was used to measure whether each peptide fragment was bound by the IgE antibody in the serum from a patient and a healthy subject, or not. When alanine substitution of an amino acid at a certain position led to loss or reduction of binding activity to the IgE antibody from the patient and development of binding activity to the IgE antibody from the healthy subject, the amino acid was determined to be an amino acid important for expression of inherent antigenicity or an amino acid affecting expression of inherent antigenicity. […] A common sequence important for expression of inherent antigenicity was discovered by this analysis.
(§2) The result of alanine scanning performed on the amino acid sequence of SEQ ID NO: 22 and the result of alanine scanning performed on the amino acid sequence of SEQ ID NO: 29 are shown in FIG. 3, respectively.

[3] = system: IgE antibody from the healthy subject; assay: Epitope mapping (3): alanine scanning ELISA, healthy subject serum; format: binding, human; details: alanine-substituted peptides; sera from healthy individuals 1 and 2; FIG. 3
Procedure: as §1, §2

[4] = system: anti-human IgE antibody as a secondary antibody; assay: Epitope mapping (3): alanine scanning ELISA, secondary antibody used alone; format: binding; details: alanine-substituted peptides, FIG. 3
Text: FIG. 3 is a diagram showing the result of investigation of positions important for exerting antigenicity in SEQ ID NOs: 22 and 29 by an alanine scanning technique. The number on the horizontal axis denotes a value of coloration intensity at 450 nm measured by an absorption spectrometer (Abs.). In this figure, a double wavy line denotes that a value is not shown, P1 denotes that the serum from patient 1 was used, N1 and N2 denote that the sera from healthy individuals 1 and 2 were used, and 2nd denotes that an anti-human IgE antibody as a secondary antibody was used alone.
as §1, §2

Row | Substance | binding of IgE antibody to peptide spot (chemiluminescence) [1] | binding activity to the IgE antibody from the patient (absorbance at 450 nm) [2] | binding activity to the IgE antibody from the healthy subject (absorbance at 450 nm) [3] | binding activity to the anti-human IgE antibody as the secondary antibody (absorbance at 450 nm) [4]
1 | SEQ ID NO: 6: peptide of amino acids 221 to 235 of the full-length ω-5 gliadin from bread wheat (SEQ ID NO: 51) (QQFPQQEFPQQQQFP; epitope) | bound, in a manner specific to a patient |  |  | 
2 | SEQ ID NO: 13: peptide of amino acids 161 to 175 of the full-length ω-5 gliadin from bread wheat (SEQ ID NO: 51) (PQQQPPQQHQFPQQQ; epitope) | bound, in a manner specific to a patient |  |  | 
3 | SEQ ID NO: 32: amino acid at position 5 in SEQ ID NO: 22 substituted with alanine (QQFPQQEFPAQQQFP; modified epitope) |  | reduced binding activity | did not develop binding activity | did not develop binding activity
4 | SEQ ID NO: 35: amino acid at position 1 in SEQ ID NO: 22 substituted with alanine (QQFPQAEFPQQQQFP; modified epitope) |  | slightly reduced binding activity | developed a relatively low level of binding activity | developed a relatively low level of binding activity
